Results as given in publication PMC7822819, “Discovery of a new class of integrin antibodies for fibrosis” (Scientific Reports, 2021).
Read-outs that look alike come from different tables or passages of the source.

Columns and labels:
Test in all cases: AlphaLISA integrin-ligand binding assay
Type in all cases: biochemical
[1] = molecular target: T1, human α5β1 (Homo sapiens, UniProt P05556+P08648)
T1 construct: hα5 1 995; hβ1 1 728; made in house; host or cells: Expi293
Experimental: (§1) In the AlphaLISA integrin assays, we used a HEPES based buffer (25 mM HEPES pH 7.4, 137 mM NaCl, 1 mM MgCl2, 1 mM MnCl2, 2 mM CaCl2, 2.7 mM KCl, and 0.05% Tween-20). Optimal assay conditions were determined with a titration of the reagents for signal noise ratio (S/N), linear range, etc. For the respective integrins, we used the final concentrations described in Supplemental Table S3. Briefly, the testing antibody (8 μL) was added as a 4x (of Final testing concentration) solution in the HEPES buffer described previously into a 384w AlphaPlate (Perkin Elmer #6005350). Then the integrin and ligand were added sequentially as 8x (4 μL each). Plates were sealed and incubated at room temperature for 2 h. Then 4 × acceptor bead solution (8 μL) was added, and the plates were resealed and incubated at RT for 1 h. Finally, 4 × (8 μL) donor beads solution was added in a darkened room and incubated for 45 min at room temperature. Plates were read on the Envision (Perkin Elmer) in AlphaScreen mode within 3 h of donor bead addition.
(§2) Supplemental Table S3. integrin AlphaLIS A assay reagents and conditions Human A l phal i sa Inte gri n A ssays: Fi nal Condi ti ons […]
(§3) ( batch de pe nde nt) anti body A l phaLi sa A cce ptor havb1 1. 4 nM 1. 0 nMα - Fi brone cti n human Fi brone cti n n/a A cce ptor be ads/ Pe rki n 10. 0 ug/ m 10. 0 ug/ m […]
(§4) havb3 3. 0 nM 10. 0 nMhuman V i trone cti n- GST α - GS T A cce p t o r ug/ m Stre ptavi di n Donor ug/ m tagge d n/a be ads/ Pe rki n 15. 0 l be ads/ Pe rki n El me r 15. 0 l […]
(§5) havb6 0. 1 nM 0. 5 nM 3. […]
(§6) Mouse A l phal i sa Inte gri n A ssays: Fi nal Condi ti ons […]
(§7) m aV b 1 4. 3 nM 1. 0 nMmouse f i brone cti n A bcam α - Fi brone cti n ( Rabbi t […]
(§8) 0 nM 5. […] 0nM be ads/ Pe rki n El me r […]
(§9) m aV b 6 1. 4 nM 2. 5 nMmouse LA P- 6Hi s α - 6x HI S / P e rk i n El m e r ug/ m ug/ m m aV b 8 1. 0 nM 2. 5 nMChe mpartne rn/a( A L 128) 15 l 15 l

[2] = molecular target: T2, human αvβ3 (Homo sapiens, UniProt P05106+P06756)
T2 construct: hαV 1 992; hβ3 1 718; made in house; host or cells: Expi293
Experimental: as §1, §2, §3, §4, §5, §6, §7, §8, §9

[3] = molecular target: T3, human αvβ5 (Homo sapiens, UniProt P06756+P18084)
T3 construct: hαV 1 992; hβ5 1 719; made in house; host or cells: Expi293
Experimental: as §1, §2, §3, §4, §5, §6, §7, §8, §9

[4] = molecular target: T4, mouse α5β1 (Mus musculus, UniProt P09055+P11688); conditions: Fig. 4B; read-out: IC50 Mouse integrin AlphaLISA assays: mα5β1
T4 construct: mα5 1 999; m β1 1 728; made in house; host or cells: Expi293
Experimental: as §1, §2, §3, §4, §5, §6, §7, §8, §9

[5] = molecular target: T5, mouse αvβ3 (Mus musculus, UniProt O54890+P43406); conditions: Fig. 4B; read-out: IC50 Mouse integrin AlphaLISA assays: mαvβ3
T5 construct: mαV 1 988; m β3 1 717; made in house; host or cells: Expi293
Experimental: as §1, §2, §3, §4, §5, §6, §7, §8, §9

[6] = molecular target: T6, mouse αvβ5 (Mus musculus, UniProt O70309+P43406); conditions: Fig. 4B; read-out: IC50 Mouse integrin AlphaLISA assays: mαvβ5
T6 construct: mαV 1 988; m β5 1 719; made in house; host or cells: Expi293
Experimental: as §1, §2, §3, §4, §5, §6, §7, §8, §9

[7] = molecular target: T7, mouse αvβ8 (Mus musculus, UniProt P43406+Q0VBD0); conditions: Fig. 4B; read-out: IC50 Mouse integrin AlphaLISA assays: mαvβ8
T7 construct: mαV 1 988; m β8 1 679; made in house; host or cells: Expi293
Experimental: as §1, §2, §3, §4, §5, §6, §7, §8, §9

[8] = molecular target: human αvβ1 (Homo sapiens, UniProt P05556+P06756); parameters: hαV 1 992; hβ1 1 728; made in house; host or cells: Expi293
Experimental: as §1, §2, §3
havb3 3. 0 nM 10. […]

T1 sequence (P08648 42-995): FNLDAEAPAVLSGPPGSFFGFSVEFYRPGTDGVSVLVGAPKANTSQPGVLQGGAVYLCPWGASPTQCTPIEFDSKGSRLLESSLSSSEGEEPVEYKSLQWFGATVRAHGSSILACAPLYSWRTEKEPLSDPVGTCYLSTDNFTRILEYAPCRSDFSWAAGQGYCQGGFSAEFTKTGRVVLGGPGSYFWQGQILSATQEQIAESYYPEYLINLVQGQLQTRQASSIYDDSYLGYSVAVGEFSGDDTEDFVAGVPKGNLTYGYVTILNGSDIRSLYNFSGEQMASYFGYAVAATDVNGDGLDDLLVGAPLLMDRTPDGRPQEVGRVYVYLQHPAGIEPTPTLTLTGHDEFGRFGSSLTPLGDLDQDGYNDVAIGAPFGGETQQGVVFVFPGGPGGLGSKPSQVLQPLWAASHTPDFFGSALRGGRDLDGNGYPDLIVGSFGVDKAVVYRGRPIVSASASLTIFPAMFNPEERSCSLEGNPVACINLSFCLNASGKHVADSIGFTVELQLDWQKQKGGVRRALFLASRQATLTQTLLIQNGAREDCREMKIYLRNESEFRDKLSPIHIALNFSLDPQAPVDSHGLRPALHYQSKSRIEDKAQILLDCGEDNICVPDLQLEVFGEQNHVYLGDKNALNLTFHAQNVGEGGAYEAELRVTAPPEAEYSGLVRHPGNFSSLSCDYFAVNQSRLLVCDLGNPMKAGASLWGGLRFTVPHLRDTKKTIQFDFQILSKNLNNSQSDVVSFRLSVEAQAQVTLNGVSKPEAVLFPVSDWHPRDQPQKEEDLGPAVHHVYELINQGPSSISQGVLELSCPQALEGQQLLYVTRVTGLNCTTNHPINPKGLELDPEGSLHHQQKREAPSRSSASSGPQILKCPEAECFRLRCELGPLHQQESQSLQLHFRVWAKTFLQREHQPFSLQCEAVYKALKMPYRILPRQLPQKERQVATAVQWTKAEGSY
T1 sequence (P05556 21-728): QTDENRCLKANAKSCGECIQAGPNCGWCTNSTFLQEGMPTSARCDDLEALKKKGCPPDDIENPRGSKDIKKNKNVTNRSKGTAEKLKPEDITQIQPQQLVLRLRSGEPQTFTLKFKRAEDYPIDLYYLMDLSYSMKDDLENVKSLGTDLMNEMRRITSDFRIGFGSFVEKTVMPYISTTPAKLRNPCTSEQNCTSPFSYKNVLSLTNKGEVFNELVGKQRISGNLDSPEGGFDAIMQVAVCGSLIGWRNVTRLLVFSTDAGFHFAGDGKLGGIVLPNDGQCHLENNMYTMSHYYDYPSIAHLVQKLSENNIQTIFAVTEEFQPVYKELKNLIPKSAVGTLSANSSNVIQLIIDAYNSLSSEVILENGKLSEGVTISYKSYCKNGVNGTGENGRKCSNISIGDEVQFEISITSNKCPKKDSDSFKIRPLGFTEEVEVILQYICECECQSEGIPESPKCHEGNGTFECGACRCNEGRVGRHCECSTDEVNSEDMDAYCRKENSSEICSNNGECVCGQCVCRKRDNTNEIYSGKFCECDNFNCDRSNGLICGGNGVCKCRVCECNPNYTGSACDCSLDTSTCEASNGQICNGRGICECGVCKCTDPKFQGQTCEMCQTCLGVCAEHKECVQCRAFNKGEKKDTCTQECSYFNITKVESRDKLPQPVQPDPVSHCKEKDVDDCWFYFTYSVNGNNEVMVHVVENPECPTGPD
T3 sequence (P06756 31-992): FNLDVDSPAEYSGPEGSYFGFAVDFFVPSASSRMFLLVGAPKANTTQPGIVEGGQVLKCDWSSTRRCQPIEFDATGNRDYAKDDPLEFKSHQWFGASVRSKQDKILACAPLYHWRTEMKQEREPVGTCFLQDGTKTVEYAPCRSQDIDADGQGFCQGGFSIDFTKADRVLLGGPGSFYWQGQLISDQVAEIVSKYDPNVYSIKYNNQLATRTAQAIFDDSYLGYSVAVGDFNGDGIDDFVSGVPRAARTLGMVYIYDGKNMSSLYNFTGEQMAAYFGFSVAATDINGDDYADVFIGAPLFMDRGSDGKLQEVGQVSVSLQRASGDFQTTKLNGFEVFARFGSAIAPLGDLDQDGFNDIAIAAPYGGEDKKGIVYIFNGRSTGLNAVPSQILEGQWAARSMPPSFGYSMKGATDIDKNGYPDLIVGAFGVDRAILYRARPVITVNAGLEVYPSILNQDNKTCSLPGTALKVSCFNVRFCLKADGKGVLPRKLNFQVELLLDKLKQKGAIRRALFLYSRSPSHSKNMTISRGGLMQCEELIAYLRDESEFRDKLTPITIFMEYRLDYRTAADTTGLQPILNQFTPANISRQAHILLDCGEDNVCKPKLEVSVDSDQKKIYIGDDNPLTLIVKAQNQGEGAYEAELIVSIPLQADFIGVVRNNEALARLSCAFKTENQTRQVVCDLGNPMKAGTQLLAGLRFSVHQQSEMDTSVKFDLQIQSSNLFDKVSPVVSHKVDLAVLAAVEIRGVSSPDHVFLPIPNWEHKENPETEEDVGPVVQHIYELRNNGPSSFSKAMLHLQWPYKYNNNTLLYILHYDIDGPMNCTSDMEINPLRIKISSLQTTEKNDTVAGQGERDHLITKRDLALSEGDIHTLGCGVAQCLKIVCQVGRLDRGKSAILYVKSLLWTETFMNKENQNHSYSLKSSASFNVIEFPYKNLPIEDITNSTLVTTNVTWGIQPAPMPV
T3 sequence (P18084 24-719): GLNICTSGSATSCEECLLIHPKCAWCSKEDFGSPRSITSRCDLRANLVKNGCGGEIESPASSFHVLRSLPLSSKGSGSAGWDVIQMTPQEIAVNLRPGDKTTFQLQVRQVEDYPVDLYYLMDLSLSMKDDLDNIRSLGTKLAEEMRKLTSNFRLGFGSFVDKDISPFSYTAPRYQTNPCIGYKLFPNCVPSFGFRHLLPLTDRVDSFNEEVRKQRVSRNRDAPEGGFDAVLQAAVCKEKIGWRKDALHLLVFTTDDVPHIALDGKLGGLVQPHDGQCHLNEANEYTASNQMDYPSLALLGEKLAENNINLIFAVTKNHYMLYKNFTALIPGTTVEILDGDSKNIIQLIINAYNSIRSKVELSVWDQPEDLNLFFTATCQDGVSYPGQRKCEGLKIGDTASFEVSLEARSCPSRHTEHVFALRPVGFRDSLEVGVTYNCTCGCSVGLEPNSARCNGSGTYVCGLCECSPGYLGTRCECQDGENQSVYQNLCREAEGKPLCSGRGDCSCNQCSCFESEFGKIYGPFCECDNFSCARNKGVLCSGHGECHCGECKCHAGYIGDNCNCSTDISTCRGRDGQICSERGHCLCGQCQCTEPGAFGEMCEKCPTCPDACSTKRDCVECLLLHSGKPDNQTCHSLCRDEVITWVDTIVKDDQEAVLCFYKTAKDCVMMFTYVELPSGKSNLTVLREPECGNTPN
Sequence of human αvβ1 (P06756 31-992): as the sequence (P06756 31-992) above
Sequence of human αvβ1 (P05556 21-728): as the sequence (P05556 21-728) above
T2 sequence (P06756 31-992): as the sequence (P06756 31-992) above
T2 sequence (P05106 27-718): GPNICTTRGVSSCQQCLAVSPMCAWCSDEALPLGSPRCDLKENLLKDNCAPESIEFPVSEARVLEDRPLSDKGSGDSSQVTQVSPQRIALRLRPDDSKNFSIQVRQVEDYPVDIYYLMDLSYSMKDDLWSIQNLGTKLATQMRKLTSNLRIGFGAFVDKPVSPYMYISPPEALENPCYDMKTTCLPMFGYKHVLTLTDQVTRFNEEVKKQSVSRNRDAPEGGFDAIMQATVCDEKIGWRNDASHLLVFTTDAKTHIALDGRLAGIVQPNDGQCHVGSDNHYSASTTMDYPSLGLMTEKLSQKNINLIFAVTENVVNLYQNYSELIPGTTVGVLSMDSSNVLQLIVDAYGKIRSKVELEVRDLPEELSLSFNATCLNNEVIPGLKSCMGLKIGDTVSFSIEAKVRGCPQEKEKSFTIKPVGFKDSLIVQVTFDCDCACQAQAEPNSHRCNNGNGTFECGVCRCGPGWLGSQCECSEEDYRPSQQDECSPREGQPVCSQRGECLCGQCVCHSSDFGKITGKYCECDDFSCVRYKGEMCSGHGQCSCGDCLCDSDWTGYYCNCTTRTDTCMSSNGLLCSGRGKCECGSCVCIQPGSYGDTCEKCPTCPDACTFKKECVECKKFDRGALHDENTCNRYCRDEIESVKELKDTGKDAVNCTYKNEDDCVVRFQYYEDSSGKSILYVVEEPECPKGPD

- IC50 ([1]; Fig. 3D, assay optimisation, read-out: IC50 human α5β1 AlphaLISA): 17.3 nM
- IC50 ([1]; Fig. 4B, read-out: IC50 Human integrin AlphaLISA assays: hα5β1): 26.5 nM
- IC50 ([2]; Fig. 3D, assay optimisation, read-out: IC50 human αvβ3 AlphaLISA): 0.15 nM
- IC50 ([2]; Fig. 4B, read-out: IC50 Human integrin AlphaLISA assays: hαvβ3): 1.6 nM
- IC50 ([3]; Fig. 3D, assay optimisation, read-out: IC50 human αvβ5 AlphaLISA): 9.9 nM
- IC50 ([3]; Fig. 4B, read-out: IC50 Human integrin AlphaLISA assays: hαvβ5): 2.9 nM
- IC50 [4]: 50.3 nM
- IC50 [5]: 0.9 nM
- IC50 [6]: 48.3 nM
- IC50 [7]: 5.3 nM
- IC50 ([8]; Fig. 3D, assay optimisation, read-out: IC50 human αvβ1 AlphaLISA): 0.46 nM
- IC50 ([8]; Fig. 4B, read-out: IC50 Human integrin AlphaLISA assays: hαvβ1): 1 nM
Compound: COc1ccc(C(CC(=O)O)N2CCN(CCCc3ccc4c(n3)NCCC4)C2=O)cn1 (stereo not drawn) [MK-0429]
